Experimental data reported in patent US12624068B2, “Exon skipping by peptide nucleic acid derivatives” (OliPass Corporation, priority 2016, dated 2026).
{Fethoc} = N-terminal Fethoc capping group (publication's abbreviation); [C(1O2)] = modified PNA monomer acting as cytosine, C(pOq) type, 1O2; [A(5)] = modified PNA monomer acting as adenine, A(p) type, p=5; [A(6)] = modified PNA monomer acting as adenine, A(p) type, p=6; [G(6)] = modified PNA monomer acting as guanine, G(p) type, p=6; {NH2} = C-terminal non-substituted amino (amide) group

Tests used:
[1] = system: melanogenesis in B16F10 cells; assay: Melanin content (melanogenesis) in B16F10 cells; format: cell-based, mouse; details: 24 hours
Method: “TYR-ASO 4” was evaluated for its ability to inhibit the melanogenesis in B16F10 cells as described below.
B16F10 cells grown in 60 mm culture dish containing 5 mL culture medium were treated either with “TYR-ASO 4” at 0 (negative control) or 1 to 1,000 aM, or with 10 or 100 μg/mL arbutin as a positive control. (2 culture dishes per dose) 24 hours later, the cells were subjected to lysis with 200 μL 1N NaOH. Each lysate was collected in 1.5 mL e-tube, and kept overnight at room temperature. The melanin content in each lysate was determined by absorbance at 475 nm on an ELISA reader. The experiment was repeated four times using cells at different passage. The four sets of the melanin content data were pooled for statistical analysis by student's t-test against the melanin content without treatment (negative control).

[2] = system: human dystrophin pre-mRNA; details: DMD patients, intravenous infusion 2 to 20 mg/Kg per week; cited from earlier work
[3] = system: mouse dystrophin pre-mRNA; assay: Dystrophin nested PCR (Method A) in muscles of mdx mice; format: in vivo; details: subcutaneous 1,000 pmole/Kg BID for 3 days, quadriceps and gastrocnemius
Method: “DMD-ASO 1” and “DMD-ASO 4” were evaluated for their ability to induce exon skipping in muscles of mdx mice by subcutaneous administration as follows. [ASO Treatment & Sampling Muscle Tissues] The injection solutions were prepared by diluting an aqueous mother stock solution of “DMD-ASO 1” or “DMD-ASO 4” in PBS to 500 nM. Male mdx mice were subcutaneously administered with vehicle only (negative control), “DMD-ASO 1” or “DMD-ASO 4” at 2 mL/Kg, 2× per day (BID) for 3 days. One day after the final dose, the animals were anesthetized with zoletil/rompun, and sacrificed to sample muscle tissues including the heart, diaphragm, gatrocnemius, quadriceps, and triceps. [RNA Extraction] Muscle samples were homogenized by grinding in a tube kept on ice, and subjected to total RNA extraction with 1 mL trizol reagent (Invitrogen) per ca 100 mg muscle tissue. [cDNA Synthesis by One-Step RT-PCR] 500 ng of RNA template was used in a 25 μL reverse transcription reaction using Super Script® One-Step RT-PCR kit with Platinum® Taq polymerase (Cat. Number 10928-042, Invitrogen) and a set of exon-specific primers [DMD-exon 21_forward: (5'→3') […] NO: 103); and DMD-exon 25_reverse: (5'→3') […] [Nested PCR Amplification] 1 μL of cDNA was further amplified in a 20 μL nested PCR (Cat. Number K2612, Bioneer) reaction against a set of primers [DMD-exon 22n_forward: (5'→3') […] NO: 105); and DMD-exon 25n_reverse: (5'→3') […] [Identification of Exon Skipping Product] The skipping of exon 23 was detected only in the animals treated with “DMD-ASO 1” and “DMD-ASO 4”. […] Mdx mice subcutaneously received “DMD-ASO 1” at 0 (negative control) or 10 pmole/Kg, 2× per day for 5 days. (2 animals per group) One day after the final dose, the animals were sacrificed for tissue sampling. The triceps samples were evaluated for the skipping of exon 23 according to the nested RT-PCR method described in “DMD Example 1”.

human PD-1 mRNA = assay: PD-1 nested qPCR in Jurkat cells; format: cell-based; details: activated Jurkat cells, 100 and 1,000 aM, 24 hours
Method: [Cell Culture & ASO Treatment] Jurkat cells grown in 60 mm culture dish were activated with an anti-CD3 antibody (Cat. Number 16-0037, eBioscience) at […] and an anti-CD28 antibody (Cat. No. 16-0289, eBioscience) at 0.5 μg/mL for 48 hours. Then the culture medium was replaced with fresh medium, and treated with “PD-ASO 3” at 0 (negative control), 10, 100 or 1,000 aM for 24 hours. (4 culture dishes per ASO concentration) [RNA Extraction and cDNA Synthesis by One Step RT-PCR] Total RNA was extracted using RNAeasy mini prep kit (Qiagen, USA) according to the manufacturer's protocol. […] NO: 157); and PD-exon 5_reverse: (5'→3') […] NO: 158)]. Cycle conditions: 50° C. for 30 minutes and 94° C. for 2 minutes, which was followed by 30 cycles of 30 seconds at 94° C., 30 seconds at 53° C., and 1 minutes at 72° C. [Nested qPCR by SYBR] […] NO: 159); and PD-exon 2_reverse: (5'→3') […] NO: 160)] according to the following cycle conditions: 20 seconds at 95° C., 30 seconds at 56° C., and 40 seconds at 72° C. for 40 cycles. The qPCR reaction was probed with SYBR (Bio-Rad, USA).

[4] = system: secretion of kynurenine in SKOV3 cells; assay: Kynurenine secretion assay in SKOV3 cells; format: cell-based, human; details: 24 hours, with 10 ng/mL γ-interferon
Method: The functional activity of “IDO-ASO 1” was evaluated for its ability to inhibit the secretion of kynurenine in SKOV3 cells as follows.
[Kynurenine Secretion Assay] […] (3 dishes per concentration) Cells were treated with the ASO along with 10 ng/mL γ-interferon to increase the kynurenine secretion. 24 hours later, 200 μL of the culture medium was sampled from each culture dish and mixed with 100 μL 30% trichloroacetic acid. The mixture was vortexed and subjected to centrifugation at 8,000 g for 5 min. 75 μL of the resulting supernatant was mixed with 75 μL Ehrlich reagent (0.8% p-dimethylamino-benzaldehyde in acetic acid), and the mixture was subjected to a quantification for kynurenine at 490 nm on an ELISA reader. [PLOS One 5(8): e63301 (2013)]

human IDO1 pre-mRNA = assay: IDO1 nested PCR for exon skipping in SKOV3 cells; format: cell-based; details: 48 hours
Method: “IDO-ASO 1” was evaluated for its ability to induce exon skipping in SKOV3 cells (Cat. Number HTB-77, ATCC) by IDO1 nested PCR as follows. [Cell Culture & ASO Treatment] SKOV3 (human ovary adenocarcinoma) cells were subcultured in 60 mm culture dish containing 5 mL McCoy's 5A modified medium supplemented with 10% FBS, 1% streptomycin/penicillin, 1% L-glutamine, and 1% sodium pyruvate under 5% CO2 at 37° C., and treated with “IDO-ASO 1” for 48 hours at 0 zM (negative control), 10 zM, 100 zM or 1 aM. [RNA Extraction & cDNA Synthesis by One-Step RT-PCR] Total RNA was extracted from the cells using “Universal RNA Extraction Kit” (Cat. Number 9767, Takara) according to the manufacturer's instructions. […] NO: 114); and IDO-exon 10_reverse: (5'→3') […] [Nested PCR Amplification] 1 μL of cDNA was further amplified in a 20 μL nested PCR reaction (Cat. No. K2612, Bioneer) against a set of exon-specific primers [IDO-exon 4_forward: (5'→3') […] NO: 116); and IDO-exon 9_reverse: (5'→3') […] [Identification of Exon Skipping Product] The PCR products were subjected to electrophoretic separation on a 2% agarose gel. The bands of target size were collected and analyzed by Sanger sequencing. […] [ASO Treatment] SKOV3 cells grown in 60 mm culture dish were treated with “IDO-ASO 5” at 0 (negative control), 1, 3, 10, 30 or 100 aM for 48 hours. [cDNA Synthesis by One-step PCR] […] NO: 119); and IDO-exon 8_reverse: (5'→3') […] [Nested PCR Amplification] 1 μL of cDNA was further amplified in a 20 μL nested PCR (Cat. No. K2612, Bioneer) reaction using a set of exon-specific primers [IDO-exon 1n_forward: (5'→3') […] NO: 121); and IDO-exon 8n_reverse: (5'→3') […] “IDO-ASO 6” was evaluated for its ability to induce exon skipping in SKOV3 cells by IDO1 nested PCR as described in “IDO1 Example 3” unless noted otherwise.

For OC[C@H]1O[C@@H](Oc2ccc(O)cc2)[C@H](O)[C@@H](O)[C@@H]1O [arbutin], the “decrease of melanin content” value ([1]; 10 μg/mL) was roughly 15% and the “decrease of melanin content” value ([1]; 100 μg/mL) was 25%.
In the case of Eteplirsen, the “skipping of exon 51 (IHC of muscle biopsy for full-length dystrophin)” value [2] is listed as “induced the skipping of exon 51” and the tolerability [2] is listed as “well tolerated”.
For “Fethoc-A(6)CT-TTG(6)-CA(6)G-A(6)GC(1O2)-CTC(1O2)-AA(6)-NH2 (antisense ACTTTGCAGAGCCTCAA; all peptide nucleic acid (PNA), [A(6)] at 1, 8, 10, 17, [G(6)] at 6, [C(1O2)] at 12, 15, 5' {Fethoc}, 3' {NH2}; peptide nucleic acid backbone) [DMD-ASO 4]”, the “skipping of dystrophin exon 23 (nested PCR Method A)” value [3] was “detected”.
With “Fethoc-C(1O2)TG(6)-GG(6)G-AG(6)T-CTG-A(5)G-NH2 (CTGGGGAGTCTGAG; splice-switching; all peptide nucleic acid (PNA), [C(1O2)] at 1, [G(6)] at 3, 5, 8, [A(5)] at 13, 5' {Fethoc}, 3' {NH2}; peptide nucleic acid backbone) [PD-ASO 1]” the “decrease of PD-1 mRNA level (nested qPCR)” value (human PD-1 mRNA) was roughly 60%.
With “Fethoc-GG(6)A-A(5)TT-A(5)CC(1O2)-TAA(5)-A-NH2 (GGAATTACCTAAA; splice-switching; all peptide nucleic acid (PNA), [G(6)] at 2, [A(5)] at 4, 7, 12, [C(1O2)] at 9, 5' {Fethoc}, 3' {NH2}; peptide nucleic acid backbone) [IDO-ASO 1]” the “decrease of kynurenine secretion” value ([4]; 1 fM) was roughly 40%, the secretion of kynurenine ([4]; 10 zM to 1 fM except 1 aM) was “significantly (student's t-test) decreased” and the “intensity of the full-length IDO-1 mRNA by nested PCR” value (human IDO1 pre-mRNA; 1 aM) was “increased”. The “intensity of the full-length IDO-1 mRNA by nested PCR” value (human IDO1 pre-mRNA; 10 or 100 zM) was “decreased”, the “IDO1 exon skipping band by nested PCR” value (human IDO1 pre-mRNA; 10 zM or 1 aM) was “not detected” and the “skipping of IDO1 exons 6-7 by nested PCR” value (human IDO1 pre-mRNA; 100 zM) was “detected”.
